Source: publication PMC3639963, “A New Class of Small Molecule Inhibitor of BMP Signaling” (PLoS ONE, 2013)

Legend:
Experiment in all cases: Nanosyn kinase profiling
Assay type in all cases: biochemical
Settings in all cases: read-out: Percentage inhibition; for inhibition at 0.1 µM: 0.1 µM inhibitor; for inhibition at 1 µM: 1 µM inhibitor
[1] = target: T1, CK1γ2 (Homo sapiens, UniProt P78368)
T1 construct: purchased Nanosyn (enzymatic panel); SGC in-house recombinant human kinases (DSF panel); Invitrogen (ALK1-6)
T1 sequence (P78368 whole entry): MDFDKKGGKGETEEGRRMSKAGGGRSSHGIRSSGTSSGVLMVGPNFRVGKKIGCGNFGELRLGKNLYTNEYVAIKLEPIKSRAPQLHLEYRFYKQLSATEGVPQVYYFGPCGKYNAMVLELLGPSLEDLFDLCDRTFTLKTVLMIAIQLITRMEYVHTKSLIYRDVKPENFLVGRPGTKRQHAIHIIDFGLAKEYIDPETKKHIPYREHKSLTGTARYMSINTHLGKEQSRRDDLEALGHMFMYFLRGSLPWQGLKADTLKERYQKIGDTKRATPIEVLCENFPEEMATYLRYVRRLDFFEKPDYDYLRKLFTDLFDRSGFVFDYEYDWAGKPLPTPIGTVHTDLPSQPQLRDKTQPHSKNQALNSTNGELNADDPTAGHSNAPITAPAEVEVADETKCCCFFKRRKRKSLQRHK
Method in brief: (§1)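 Percent inhibition of each kinase was measured with the inhibitor at 0.1 µM and at 1 µM, as part of a 200-kinase human selectivity panel.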

[2] = target: T2, MST2 (Homo sapiens, UniProt Q13188)
T2 construct: purchased Nanosyn (enzymatic panel); SGC in-house recombinant human kinases (DSF panel); Invitrogen (ALK1-6)
T2 sequence (Q13188 1-491): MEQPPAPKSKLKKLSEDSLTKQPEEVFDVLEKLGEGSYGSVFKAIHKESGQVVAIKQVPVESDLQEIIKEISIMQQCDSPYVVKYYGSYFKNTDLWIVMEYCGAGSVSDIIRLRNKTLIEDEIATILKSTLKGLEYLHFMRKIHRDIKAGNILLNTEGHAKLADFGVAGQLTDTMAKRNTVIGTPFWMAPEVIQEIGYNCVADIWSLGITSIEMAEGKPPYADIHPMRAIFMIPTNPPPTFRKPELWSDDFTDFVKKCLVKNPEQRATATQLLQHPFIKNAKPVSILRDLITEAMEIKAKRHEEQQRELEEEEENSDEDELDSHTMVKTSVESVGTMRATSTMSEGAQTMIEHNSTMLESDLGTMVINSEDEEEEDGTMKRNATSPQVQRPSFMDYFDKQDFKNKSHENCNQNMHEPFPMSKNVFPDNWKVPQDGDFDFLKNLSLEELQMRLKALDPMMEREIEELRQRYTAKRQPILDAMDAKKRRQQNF
Method in brief: as §1

[3] = target: T3, PKCα (Homo sapiens, UniProt P17252)
T3 construct: purchased Nanosyn (enzymatic panel); SGC in-house recombinant human kinases (DSF panel); Invitrogen (ALK1-6)
Method in brief: as §1

[4] = target: T4, GSK3α (Homo sapiens, UniProt P49840)
T4 construct: purchased Nanosyn (enzymatic panel); SGC in-house recombinant human kinases (DSF panel); Invitrogen (ALK1-6)
T4 sequence (P49840 whole entry): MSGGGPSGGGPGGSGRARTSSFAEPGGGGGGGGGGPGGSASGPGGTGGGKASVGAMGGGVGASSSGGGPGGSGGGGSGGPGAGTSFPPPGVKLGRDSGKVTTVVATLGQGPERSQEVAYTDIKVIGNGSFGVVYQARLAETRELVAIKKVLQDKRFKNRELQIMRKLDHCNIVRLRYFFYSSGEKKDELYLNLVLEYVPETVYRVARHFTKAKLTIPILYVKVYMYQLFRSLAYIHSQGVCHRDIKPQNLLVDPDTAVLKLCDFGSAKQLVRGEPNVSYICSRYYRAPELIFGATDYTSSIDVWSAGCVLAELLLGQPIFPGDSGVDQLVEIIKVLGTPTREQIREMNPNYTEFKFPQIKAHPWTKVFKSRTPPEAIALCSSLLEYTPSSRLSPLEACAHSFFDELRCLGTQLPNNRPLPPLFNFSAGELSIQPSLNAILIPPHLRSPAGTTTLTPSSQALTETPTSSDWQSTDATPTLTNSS
Method in brief: as §1

[5] = target: T5, DDR2 (Homo sapiens, UniProt Q16832)
T5 construct: purchased Nanosyn (enzymatic panel); SGC in-house recombinant human kinases (DSF panel); Invitrogen (ALK1-6)
T5 sequence (Q16832 22-855): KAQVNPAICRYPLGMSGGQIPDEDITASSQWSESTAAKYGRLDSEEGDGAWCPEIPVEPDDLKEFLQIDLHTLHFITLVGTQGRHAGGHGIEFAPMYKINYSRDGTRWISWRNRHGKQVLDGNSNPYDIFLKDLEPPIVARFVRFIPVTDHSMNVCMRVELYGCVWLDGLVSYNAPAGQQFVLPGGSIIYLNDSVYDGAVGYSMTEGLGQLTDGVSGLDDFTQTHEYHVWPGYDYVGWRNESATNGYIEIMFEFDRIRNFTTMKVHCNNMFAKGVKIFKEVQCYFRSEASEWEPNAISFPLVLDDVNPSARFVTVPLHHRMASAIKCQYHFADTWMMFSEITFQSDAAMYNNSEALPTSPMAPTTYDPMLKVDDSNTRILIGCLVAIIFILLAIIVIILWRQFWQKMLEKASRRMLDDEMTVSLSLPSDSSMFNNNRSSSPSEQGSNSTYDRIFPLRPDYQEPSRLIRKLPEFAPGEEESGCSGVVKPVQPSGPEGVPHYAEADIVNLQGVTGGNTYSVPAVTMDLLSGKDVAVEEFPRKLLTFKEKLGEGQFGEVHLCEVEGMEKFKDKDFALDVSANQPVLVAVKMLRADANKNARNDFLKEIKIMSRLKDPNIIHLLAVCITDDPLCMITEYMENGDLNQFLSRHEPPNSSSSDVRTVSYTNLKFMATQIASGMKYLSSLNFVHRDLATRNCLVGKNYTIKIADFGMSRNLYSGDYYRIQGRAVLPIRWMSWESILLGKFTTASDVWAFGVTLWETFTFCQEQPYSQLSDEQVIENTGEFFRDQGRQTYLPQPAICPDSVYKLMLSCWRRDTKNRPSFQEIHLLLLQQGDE
Method in brief: as §1

[6] = target: T6, CAMK2α (Homo sapiens, UniProt Q9UQM7)
T6 construct: purchased Nanosyn (enzymatic panel); SGC in-house recombinant human kinases (DSF panel); Invitrogen (ALK1-6)
T6 sequence (Q9UQM7 whole entry): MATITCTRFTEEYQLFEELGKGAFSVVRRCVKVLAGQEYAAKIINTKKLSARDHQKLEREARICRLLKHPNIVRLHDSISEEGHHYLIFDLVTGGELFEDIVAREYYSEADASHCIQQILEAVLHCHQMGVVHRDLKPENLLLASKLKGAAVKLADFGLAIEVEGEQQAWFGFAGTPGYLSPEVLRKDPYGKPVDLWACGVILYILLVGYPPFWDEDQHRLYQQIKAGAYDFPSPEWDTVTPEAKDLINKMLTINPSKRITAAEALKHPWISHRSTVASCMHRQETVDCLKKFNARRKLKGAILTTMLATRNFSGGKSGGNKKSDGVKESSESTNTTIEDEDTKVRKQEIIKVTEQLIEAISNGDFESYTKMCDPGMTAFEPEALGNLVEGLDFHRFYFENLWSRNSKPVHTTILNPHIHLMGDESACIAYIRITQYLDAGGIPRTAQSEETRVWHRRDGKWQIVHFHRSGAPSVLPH
Method in brief: as §1

[7] = target: T7, BRK (Homo sapiens, UniProt Q13882)
T7 construct: purchased Nanosyn (enzymatic panel); SGC in-house recombinant human kinases (DSF panel); Invitrogen (ALK1-6)
T7 sequence (Q13882 whole entry): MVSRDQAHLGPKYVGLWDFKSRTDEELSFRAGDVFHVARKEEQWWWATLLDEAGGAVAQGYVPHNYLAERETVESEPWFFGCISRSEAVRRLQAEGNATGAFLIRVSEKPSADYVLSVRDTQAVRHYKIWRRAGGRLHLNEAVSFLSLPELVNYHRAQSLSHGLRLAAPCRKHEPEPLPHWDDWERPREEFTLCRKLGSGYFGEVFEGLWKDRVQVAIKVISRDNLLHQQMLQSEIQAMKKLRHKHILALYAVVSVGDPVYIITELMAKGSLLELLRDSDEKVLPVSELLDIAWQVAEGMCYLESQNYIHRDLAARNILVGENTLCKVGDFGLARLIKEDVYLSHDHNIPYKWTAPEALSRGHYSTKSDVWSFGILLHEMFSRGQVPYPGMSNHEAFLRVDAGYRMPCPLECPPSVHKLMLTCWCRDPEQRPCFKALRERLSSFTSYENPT
Method in brief: as §1

Row | Structure (SMILES) | inhibition at 0.1 µM [1] | inhibition at 1 µM [1] | inhibition at 0.1 µM [2] | inhibition at 1 µM [2] | inhibition at 0.1 µM [3] | inhibition at 1 µM [3] | inhibition at 0.1 µM [4] | inhibition at 1 µM [4] | inhibition at 0.1 µM [5] | inhibition at 1 µM [5] | inhibition at 0.1 µM [6] | inhibition at 1 µM [6] | inhibition at 0.1 µM [7] | inhibition at 1 µM [7]
1 | COc1cc(-c2cc(-c3cccc(O)c3)cnc2N)cc(OC)c1OC [K02288, 3-[6-amino-5-(3,4,5-trimethoxy-phenyl)-pyridin-3-yl]-phenol] | -1% | 5.5% | -2% | -1% | 0.2% | 2.2% | 0.6% | 2.1% | 0% | 11% | -2% | -2% | 13% | 66%
2 | c1ccc2c(-c3cnn4cc(-c5ccc(N6CCNCC6)cc5)cnc34)ccnc2c1 [LDN-193189] | 1.6% | 3.9% | 5.1% | 6% | 1% | 1.1% | 3.2% | 1.1% | 5.5% | 27% | 0% | -8% | 13% | 57%
